Source: US20120328605A1, “COMPOSITIONS AND USES” (priority 2010, published 2012)
Where no end group is shown, it is not given here. The star is where a group is joined. Pam3Cys = N-terminal lipid (lipidation), CCCCCCCCCCCCCCCC(=O)N[C@@H](CSCC(COC(=O)CCCCCCCCCCCCCCC)OC(=O)CCCCCCCCCCCCCCC)C(=O)*

Legend:
Lineage-CD11b+ monocytes = assay: Monocyte analysis and counting after adjuvant injection in mice; assay type: in vivo, C57BL/6 mice
Procedure: (§1) 24-Hours after injection of the TLR adjuvants, peripheral blood was drawn from C57BL/6 mice via cardiac puncture with lithium-heparin as anticoagulant. Red blood cell lysis was performed twice on pooled blood with Ammonium Chloride-based Buffer (Sigma, Steinheim, Germany) and cells were counted with the EasyCount™ System (Immunicon). […] Cells were finally washed three times and fixed for 15 min. with a 2% paraformaldehyde solution in PBS. Fluorescence minus one (FMO) controls were always included in the assays for fluorescent compensation setting. Samples were acquired on a flow cytometer (BD FACSCanto II) and data analyzed with the FACSDiva software (BD Biosciences). Monocytes were identified by their Side/Forward scatter properties and gated as CD3-/CD45R/B220-/Ly-6G-/NK1.1-(Lineage-)/CD11b+ cells. CD11b+ monocyte frequency was reported as a percentage of the total cells excluding debris.
as §1, with “24 hours” for “24-Hours”, “each immunomodulator,” for “the TLR adjuvants,”, “min” for “min.”, “monocytes” for “monocyte”

[1] = system: human microglial cell line CHME; assay: Phagocytosis of beta-amyloid 1-42 peptide by CHME cells; assay type: cell-based; details: Pam3Cys lip peptide 5 ug per ml, FIG. 18
Procedure: Phagocytosis of beta-amyloid 1-42 peptide by the human microglial cell line CHME was observed after the addition of TLR2 agonist containing adjuvants Protollin and Pam3CysLip peptide. […] The synthetic peptide sequence of the Pam3Cys Lip peptide is described herein: Pam3Cys-SQ EPAAPAAEAT PAAEAP. Protollin was used at concentration 1 ug per ml based on the LPS content from Shigella flexneri. Pam3Cys lip peptide was used at concentration of 5 ug per ml of the pure tri-palmitoylated peptide.
Additionally, cells were imaged using 42 HiLyte 488 Fluo (Anaspec, Inc.) at 2 ug per ml in DMEM complete media (Invitrogen). Lysotracker red staining was performed and slides were mounted and co-stained with DAPI to show the nucleus (blue). […] Lysotracker red reagent was purchased from Invitrogen and used as manufacturer recommendations.

PDAPP mice = details: immunization of young PDAPP mice; cited from earlier work
BV2 microglia cells = assay: In vitro phagocytosis of Aβ1-42 in BV2 cells, Western blot; assay type: cell-based, mouse; details: 5 μg/mL cytochalasin D; FIG. 16
Procedure: For total Aβ detection, 10-30 μg of cell extracts were separated on a precast 10-20% SDS polyacrylamide Tris-Tricine gel (Bio-Rad, Canada). Separated proteins were then transferred onto polyvinylidene fluoride (PVDF) membranes (PerkinElmer, Canada). Membrane were incubated in DPBS (Gibco, USA) at 90° C. for 10 min. Membrane were then incubated for 1 hour in blocking solution, which consist in TBS-T (50 mM Tris-HCl pH 8,0; 150 mM NaCl; 0.05% Tween 20) supplemented with 1% BSA (Sigma, Canada) and 5% non-fat dry milk, and probed for 16 hours at 4° C. with a mouse anti-amyloid beta protein monoclonal antibody clone 6E10 (Covance, USA) diluted to 1:1000 in TBS-T supplemented with 5% BSA and 0.02% sodium azide. Membranes were washed once for 15 min and three times for 5 min in TBS-T at room temperature. […] Films were digitalized using a HP Scanjet 4370 (HP) and signal intensity was measured using ImageJ (version 1.44p, NIH).
Aβ specific antibodies stimulate the uptake of soluble Aβ1-42 toxic peptides in an actin polymerization-dependent mechanism. […] Cells were incubated for the indicated period of time, resuspended by trypsinization, collected, solubilised in lysis buffer and further analyzed by immunoblotting. […]

APPSwe/PS1 mice = assay: T-water maze; assay type: in vivo; details: Example 21: twelve weekly injections; CRX527, CRX601 20 μg i.p., 3D MPL 50 μg i.p., AS01B 1/10th human dose i.m.; FIG. 24
Procedure: Five groups of APPSwe/PS1 mice received one a week for a period of 12 weeks the following treatment: • Gr1: APPSwe/PS1+NaCl 0.9% n(=20), i.p. injections • Gr4: APPSwe/PS1+CRX527 (20 μg/mouse, 130 μl, n=10), i.p. injections • Gr5: […] (50 μg/mouse, 130 μl, n=10), i.p. injections • Gr8 APPSwe/PS1+AS15 ( 1/10th of human dose, 50 μl, n=10), i.m. injections • Gr9: APPSwe/PS1+AS01B ( 1/10th of human dose, 50 μl, n=10), i.m. injections
Mice were tested during the “light on” phase of the day. Behavioral experimenter was blinded to the genetic and treatment status of animals. To assess hippocampal-dependent spatial learning and memory, mice were trained in the T-water maze task. In this paradigm, we evaluate the mouse's ability to remember the spatial location of submerged platform. The T-maze apparatus (length of stem, 64 cm; length of arms, 30 cm; width, 12 cm; height of walls, 16 cm) was made of clear fiberglass and filled with water (23±1° C.) at a height of 12 cm. A platform (11×11 cm) was placed at the end of the target arm and was submerged 1 cm below the surface. The acquisition phase allows to evaluate animals for left-right spatial learning. During the first two trials, platforms were placed on each arms of the maze to test the spontaneous turning preference of the mouse. After these two trials, the least chosen arm was reinforced by the escape platform. The mice were placed in the stem of the T-maze and choose to swim either left or right until they found the submerged platform and escape to it, to a maximum of 60 s. After reaching the platform, the mice remained on it for 20 s and then were immediately placed back in the maze. […] Repeated trials were presented on the same day up to a maximum of 48 trials. A rest period of at least 10-15 min intervened between each block of 10 trials. A mouse was considered to have learned the task when it made no errors in a block of five consecutive trials. […] The number of trials to reach the criterion (five of five correct choices made on consecutive trials) was measured as well as the latency to find the escape platform.

TASTPM mice = assay: T-water maze test in TASTPM; assay type: in vivo; details: 12 weekly i.m. injections; FIG. 30
Procedure: To determine whether a TLR2 agonist will improve the cognitive impairment in TASTPM mice, the Pam3CysLip adjuvant fused to the Aβ1-6 peptide was injected 12 times at weekly basis using the intramuscular route and the memory was assessed using the T-water maze test. […] TASTPM mice have received one a week for a period of 12 weeks the following treatment: PBS or mice have received once a week for a period of 12 weeks the following treatment: PBS or of Pam3CysLip Aβ1-6 peptide.

Aβ42 = Aβ42 specific immunogenicity in the amyloid deposition mouse model; assay type: in vivo, TASTPM mice; details: 12 injections of 10 ug, intramuscular route; FIG. 29
Procedure: Whole blood is collected from mice and centrifuged on a vacutainer blood collection tube containing gel for serum separation. Serum samples are stored at −80° C. Streptavidin-coated plates (Greiner Bio-One, Germany) are first coated with beta-amyloid (1-42)-Lys(Biotin)-NH2 peptide (Anaspec, Inc.) at 0.5 μg/mL, using 50 mM sodium carbonate buffer, overnight at 4° C. Plates are then washed using a 4 times using PBS/0.05% Tween 20. Super Block (ScyTek laboratories) is added to the plates and incubated at 37° C. for at least one hour. Serum samples and standard (anti Aβ42 antibody (6E10 antibody, Covance, Inc.) are serially diluted in the plates and incubated at 37° C. for 2 hours. After a wash step, diluted peroxidase AffiniPure goat anti-mouse IgG, Fcγ fragment specific (Jackson ImmunoResearch Laboratories Inc.) is added for 1 hour at 37° C. A last wash is performed before adding TMB substrate reagent (BD OptEIA™, BD Biosciences) for 30 min at RT. Immediately, plates are stopped using 2N sulfuric acid, and then read at 450 nm using SpectraMax microplate reader (Molecular Devices, Inc.).

QS21 [reference compound]
activated Ly6C+ monocytes (Lineage-CD11b+ monocytes; single i.m. injection, 24 hrs, FIG. 19B): 75% | number of monocytes, % of total peripheral white blood cells (Lineage-CD11b+ monocytes; single i.m. injection, after 24 hrs, QS21 5 μg, FIG. 19A): 9.1%

Pam3Cys-SQ EPAAPAAEAT PAAEAP (Pam3Cys-SQEPAAPAAEATPAAEAP) [Pam3CysLip peptide, TLR2 agonist, tri-palmitoylated peptide from Neisseria meningitidis strain 8047]
phagocytosis ([1]; pre-incubation 18 hrs): 86 % of cells | phagocytosis of Aβ1-42 by CHME ([1]; Protollin 1 ug per ml (LPS content), 18 hrs, vs PBS): higher amyloid phagocytic activity

synthetic human Aβ1-42: synthetic human Aβ1-42 used to immunize PDAPP mice
AD-like neuropathologies (PDAPP mice): reduce the extent and progression

C=C1[C@@H](C)[C@H]2[C@H](Cc3ccccc3)NC(=O)[C@]23[C@H](OC(C)=O)/C=C/[C@@](C)(O)C(=O)[C@@H](C)C/C=C/[C@H]3[C@@H]1O [cytochalasin D]
effect on 2E7-increased cellular uptake of Aβ1-42 (BV2 microglia cells): inhibited

CCCCCCCCCCC[C@H](CC(=O)N[C@H]1[C@H](OC[C@H](NC(=O)C[C@@H](CCCCCCCCCCC)OC(=O)CCCCCCCCC)C(=O)O)O[C@H](CO)[C@@H](OP(=O)(O)O)[C@@H]1OC(=O)C[C@@H](CCCCCCCCCCC)OC(=O)CCCCCCCCC)OC(=O)CCCCCCCCC [CRX527]
circulating monocytes numbers following injection (Lineage-CD11b+ monocytes; i.m. or i.p. routes, doses of b403, FIG. 9): Upregulation of circulating monocytes numbers | behaviour as assessed by T water maze testing (APPSwe/PS1 mice): significant improvements in behaviour

Pam3Cys-SQ EPAAPAAEAT PAAEAPDAEFRH (Pam3Cys-SQEPAAPAAEATPAAEAPDAEFRH) [Pam3CysLip Aβ1-6 peptide]
right-left discrimination tests (T-water maze) vs PBS injected group (TASTPM mice): trend of improvement | anti Aβ42 specific immunogenicity (Aβ42): High and specific anti Aβ42 specific immunogenicity
